Here are results for 50 molecules from patent US9340577B2, “HLA binding motifs and peptides and their uses” (priority 1992, dated 2016).

Read-outs that look alike come from different tables or passages of the source. No end group written: not given here. Some results are limits rather than exact numbers.

Test [1] addresses B*0702 (B*0701) (Homo sapiens, UniProt P01889). As to the kind of experiment: biochemical. The settings on record: for B*0701 binding: Table 25, given as whole numbers, no unit; for B*0702 binding: Table 30, unit not given. Format: binding.
The target in test [2] is B*5301 (Homo sapiens, UniProt P01889, A329T/A93T/A95T/C349S/D201E/D98Y/E176V/E187L/E204Q/E69T/G107R/I218V/K202T/L105A/L119I/N104I/Q94N/R106L/R155S/R180L/S101N/S121R/S35A/S48A/T118I/V127L/V306I/V36M/Y140S/Y91F). The test can be described thus: biochemical.
Test [3] has as its target A*2601 (Homo sapiens, UniProt P04439, A114D/A173T/A270S/D101N/D185E/E277Q/E87N/F33Y/G231S/I121R/I218V/K168Q/L180W/L300P/L318F/P208A/P217A/Q86R/Q94H/R138Q/S129P/T187R/T323A/T345S/V100A/V358M). The test can be described thus: biochemical. It counts as binding.
The target of test [4] is A*3002 (Homo sapiens, UniProt P04439, D101N/D140H/D185E/E176R/F33S/G80R/H175R/K168Q/Q94H/R138E/R41S/V100E). The test can be described thus: biochemical. It counts as binding.
For test [5], the target named is A*2902 (Homo sapiens, UniProt P04439, A270S/D101N/D185E/E176V/E277Q/E87Q/F33T/G231S/H175R/I121M/I218V/I322F/K168Q/L300P/L318F/M331R/P208A/P217A/Q86L/T323A/T345S/V100A/V358M). The test can be described thus: biochemical. Format: binding.
The target of test [6] is HLA-A1 (A*0101) (Homo sapiens, UniProt P04439, A114D/A174V/A182V/D101N/D185E/E176A/E190D/L180R/Q94H/R68K/S129P/T187R/V100A/V91M/W191G). The test can be described thus: biochemical. It counts as binding.
Test [7] deals with B*0701 (Homo sapiens, UniProt P01889). The test can be described thus: biochemical.
Test [8] concerns the target HLA-A*0201 (HLA-A2.1) (Homo sapiens, UniProt P04439, D140Y/D185E/D98H/E176V/E277Q/G131W/G231S/I119V/I121R/I166T/I218V/L300P/L318F/N151K/N90K/P208A/P217A/Q86G/Q94H/R138H/R169H/T345S). The test can be described thus: biochemical. It counts as binding.
The subject of test [9] is HLA-A24. Format: binding, human.

On to 1PYPIVRICL (IPYPIVRKL), for which the “B*0701 binding” value in test [1] turned out to be 1.
With TPVNSQLGNI [15.246], the IC50 in test [2] worked out at 16900 nM.
Turning to LTHFLLLKY [Peptide 9012.0134], the IC50 in [3] is 369 nM; in [4], 3.2 nM; in test [5], 1.3 nM; in [6], 32 nM.
Take GTSSFSTTINY [Peptide 9012.0190]: the IC50 in [3] is 1490 nM; in test [4], 86 nM; in test [6], 4180 nM.
Turning to ATDLGLSY [Peptide 9012.0112], the IC50 in [3] came out at 2810 nM; in test [5] it was 2200 nM; in [6] it was 9.6 nM.
For the molecule CTDIHYNY [Peptide 9012.0114], the values for the IC50 in test [3], in test [5] and in [6] were 2190 nM, 2550 nM and 68 nM, respectively.
On the same counts, the results for STVPSQKTY [Peptide 9012.0140] are 420 nM, over 20000 nM and over 20000 nM.
ATSPAFDNLYY [Peptide 9012.0188]: the IC50 was determined as 41 nM in test [3], 0.9 nM in test [4], 9.4 nM in [5] and 4.9 nM in [6].
As to SPLLLSTTEQ [15.226], the results for the IC50 in test [7] and in test [2] were 21600 nM and 55 nM, respectively.
Turning to GTRVRAMAI, in test [1], the “B*0701 binding” value is listed as 0.
As for YPKVKQWPL, the “B*0701 binding” value in test [1] is recorded as 0.
On to EPIVGAETF [15.091], for which, in [2] (B*5301 (nM)), the midpoint of inhibition, the IC50, lay at 4770 nM.
Take YTMAGVGSPY [Peptide 9012.0153]: the IC50 in [3] was 0.32 nM; in test [4], 3.5 nM; in [5], 2.2 nM; in test [6], 9.8 nM.
On the same counts, the results for LTQENYLEY [Peptide 9012.0133] are 30 nM, 23 nM, 22 nM and 16 nM.
For the molecule QPDDAVYKL, the “B*0701 binding” value in test [1] stood at 0.
For the molecule WPLYGNEGL [15.041], the IC50 in test [7] (B*0701 (nM), Binding of peptides to B7-like supermotif alleles, Table 36) was 859 nM; in test [2] (B*5301 (nM)) it was 6890 nM.
Turning to GTDVRAMAIY [Peptide 9012.0156], the values for the IC50 in [3] and in test [4] were 965 nM and 1.4 nM, respectively.
Turning to GTDPACYEF [Peptide 9012.0135], the IC50 worked out at 9840 nM in [4], 1960 nM in [5] and 467 nM in [6].
As to KPLDGEYFTL, the “B*0701 binding” value in test [1] was found to be 0.
On to 1292.2 (APTLWARMII) [Peptide 1292.2], for which the “B*0702 binding” value in test [1] amounted to 0.39.
In the case of GSRAHSSHL, the “B*0701 binding” value in [1] amounted to 0.
Same read-out and setting: next, IPYPIVRSL: 1; YPAEITLYW: 0.
In the case of SSDSTTINY [Peptide 9012.0130], the IC50 in test [4] was found to be 898 nM; in test [6], 8.5 nM.
PTDDPSPLQRY [Peptide 9012.0186]: the IC50 is over 20000 nM in test [3], 440 nM in [4], 937 nM in [5] and 32 nM in test [6].
As to CILESCFRAVI, the “binding to HLA-A2.1 (column 3; no allele head shown for these rows)” value in test [8] was found to be 0.0017. Besides, in test [9], the “binding to HLA-A24 (column 6; no allele head shown for these rows)” value is 0.0008. The “B*0701 binding” value in test [1] came out at 0.
Turning to FAMPNFQTL, the “B*0701 binding” value in test [1] worked out at 0.
The same measure, in the same setting: next, FAMPNFYTL: 0.
34.0397 (SPALNKMFBQI) [Peptide 34.0397]: the “B*0702 binding” value in test [1] was determined as 0.18.
In the case of DMDDLVDAEEY [Peptide 9012.0184], the IC50 in test [3] was 5660 nM; in test [4] it was 18000 nM; in [5], over 20000 nM; in test [6], 428 nM.
On the same counts, the results for FTTCLGLSY [Peptide 9012.0136] are 1.3 nM, 1300 nM, 2.2 nM and 15 nM.
The corresponding values for FTQENYLEY [Peptide 9012.0137] are 8 nM, 99 nM, 23 nM and 13 nM.
RYRPGTVAL: the “B*0701 binding” value in [1] came to 0.
With `CC[C@H](C)[C@H](NC(=O)[C@@H](NC(=O)[C@@H](NC(=O)[C@@H](N)CS)[C@@H](C)O)[C@@H](C)O)C(=O)N[C@@H](Cc1c[nH]cn1)C(=O)N[C@@H](Cc1ccc(O)cc1)C(=O)N[C@@H](CC(N)=O)C(=O)N[C@@H](Cc1ccc(O)cc1)C(=O)O` [Peptide 9012.0113], the IC50 in test [3] is 893 nM; in test [5], 3120 nM; in [6], 3480 nM.
With LPENNVLSPL, in [1], the “B*0701 binding” value worked out at 0.
As for `CC[C@H](C)[C@H](NC(=O)[C@@H]1CCCN1C(=O)[C@@H](N)CCCCN)C(=O)N[C@H](C(=O)N[C@@H](CCC(N)=O)C(=O)N[C@@H](Cc1ccc(O)cc1)C(=O)N[C@@H](CC(=O)O)C(=O)N[C@@H](CC(N)=O)C(=O)N[C@@H](Cc1ccccc1)C(=O)O)C(C)C` [15.185], the IC50 in test [2] (B*5301 (nM)) was 2040 nM.
With `CC(C)C[C@H](NC(=O)[C@H](CC(=O)O)NC(=O)[C@H](CCC(N)=O)NC(=O)[C@@H](N)[C@@H](C)O)C(=O)N[C@H](C(=O)N[C@@H](CCC(N)=O)C(=O)N[C@@H](CCC(=O)O)C(=O)N[C@@H](CCCCN)C(=O)N[C@@H](Cc1ccc(O)cc1)C(=O)O)C(C)C` [Peptide 83.0099], the IC50 in test [4] was 2100 nM; in test [5] it was over 20000 nM; in test [6], 91 nM.
On the same counts, the results for VTGPGPGY [Peptide 83.0098] are 305 nM, 1890 nM and 1840 nM.
Turning to NTDRHSVVVPY [Peptide 9012.0198], the IC50 in [3] was 4610 nM; in test [4], 9690 nM; in [5] it was 1720 nM.
As to MPRGVVVTL, in [1], the “B*0701 binding” value amounted to 3.
As for ITSKASEY [Peptide 9012.0108], the IC50 stood at 3160 nM in test [3], 165 nM in [4], 15200 nM in test [5] and 3290 nM in test [6].
As to SSDPSQKTY [Peptide 9012.0139], the IC50 in test [3] is over 20000 nM; in test [5], 9710 nM; in test [6] it was 37 nM.
With IPFPIVRYL, in [1], the “B*0701 binding” value stood at 0.
On to `CC[C@H](C)[C@H](NC(=O)[C@@H]1CCCN1C(=O)[C@H](CC(=O)O)NC(=O)[C@@H](NC(=O)[C@H](CCC(=O)O)NC(=O)[C@@H](N)CCSC)C(C)C)C(=O)NCC(=O)N[C@@H](Cc1c[nH]cn1)C(=O)N[C@@H](CC(C)C)C(=O)N[C@@H](Cc1ccc(O)cc1)C(=O)O` [Peptide 1461.06], for which the IC50 in test [3] turned out to be 15 nM; in test [4], 35 nM; in [5], 307 nM; in test [6] it was 371 nM.
The corresponding values for GTDCTTIHYNY [Peptide 9012.0200] are 4860 nM, 76 nM, 959 nM and 29 nM.
In the case of TMDYPLWSQSY [Peptide 9012.0196], the 50% inhibitory concentration (IC50) was 419 nM in test [3], 99 nM in test [4] and 721 nM in test [5].
On the same counts, the results for GTSSLPTTMNY [Peptide 9012.0194] are 2490 nM, 7.6 nM and 260 nM.
Turning to YVMAGVGSPY [Peptide 9012.0152], the IC50 in test [3] turned out to be 1.7 nM; in test [4], 12 nM; in [5], 3.4 nM; in [6], 122 nM.
The corresponding values for ETVPISHLY [Peptide 9012.0132] are 0.35 nM, 2.2 nM, 869 nM and 234 nM.
Molecule `CC[C@H](C)[C@H](NC(=O)[C@H](Cc1ccc(O)cc1)NC(=O)[C@H](CC(C)C)NC(=O)[C@H](Cc1c[nH]cn1)NC(=O)CNC(=O)[C@@H](NC(=O)[C@@H]1CCCN1C(=O)[C@@H](N)CC(=O)O)[C@@H](C)CC)C(=O)N[C@@H](Cc1ccccc1)C(=O)O` [15.138] returned an IC50 in test [2] (B*5301 (nM)) of 2550 nM.

A word on the IC50: it is the concentration that gives 50% inhibition. Low readings indicate greater potency in that assay, high ones weaker potency in that assay.
